The values that follow are results of earlier work, collected in patent US10676418B2, “Method for producing microparticles from pressurized and heated starting material solution” (M. TECHNIQUE CO., LTD., priority 2016, dated 2020).

For this data set the following is noted: 25° C.; normal temperature and pressure.

For the compound `COc1cc(/C=C/C(=O)CC(=O)/C=C/c2ccc(O)c(OC)c2)ccc1O` [curcumin], the solubility in ethanol result is on record as “about 0.5 % by weight”.
